Earlier results, collected in paper PMC5548701, “Selective targeting of melanoma using N-(2-diethylaminoethyl) 4-[^18F]fluoroethoxy benzamide (4-[^18F]FEBZA): a novel PET imaging probe” (EJNMMI Research, 2017).

Assays:
[1] = system: B16F1 tumor; details: cited from earlier work; for intestinal uptake: mice bearing B16F melanoma tumor; for bone uptake: 2 h
[2] = parameters: method as in PMID 27693672; details: 60–70 min; cited from earlier work

Compound	intestinal uptake ([1]; 1 h) [%IA/g]	F-18 uptake in B16F1 tumor ([1]; 1 h) [%IA/g]	bone uptake [1] [%IA/g]	uptake in mouse brain from microPET imaging [2] [%IA/g]
CCN(CC)CCNC(=O)c1ccc(F)nc1 [MEL050]	2.1 ± 0.3	8.4 ± 1.5	0.58 ± 0.05	1.38 ± 0.40
CCN(CC)CCNC(=O)c1ccc([18F])cc1 [^18F-DAFBA, N-(2-diethylaminoethyl)-4-[18F]fluorobenzamide]	3.04 ± 0.24	–	0.20 ± 0.06	–
